Here are results for four compounds from patent US9434728B1, “Nitrogen containing compounds and their use” (WOCKHARDT LIMITED, priority 2013, dated 2016).

Structures are written as SMILES. ≈ marks a conversion by molar mass, not a printed value.

Holding throughout (assay type): cell-based
The test system of one test is E. coli (7MP). The experiment in a line: Antibacterial activity, agar dilution MIC (CLSI). As to conditions: Escherichia coli, ESBL SHV, CMY. As for the experimental part: (§1) The biological activity of representative compounds according to the invention against various bacterial strains was investigated. In a typical study, overnight grown bacterial cultures were diluted appropriately and inoculated on the agar media containing doubling dilutions of the test compounds. Observations for growth or no growth was performed after 16-20 hours of incubation at 35±2° C. in the ambient air. The overall procedure was performed as per Clinical and Laboratory Standards Institute (CLSI) recommendations (Clinical and Laboratory Standards Institute (CLSI), Performance Standards for Antimicrobial Susceptibility Testing, 20th Informational Supplement, M 100-S20, Volume 30, No. 1, 2010). […] The Compound (XI), which is the free zwitterionic form of Compound (X), was also studied for the antibacterial activity profile.

The next test deals with E. coli (NCTC 13352). The experiment in a line: Antibacterial activity, agar dilution MIC (CLSI). As to conditions: Escherichia coli, NCTC13352, ESBL TEM 10. As for the experimental part: as §1
The next test concerns E. coli (NCTC 13353). The experiment in a line: Antibacterial activity, agar dilution MIC (CLSI). The conditions noted are these: Escherichia coli, NCTC13353, ESBL CTXM-15. As for the experimental part:
as §1

The next test concerns K. pneumoniae (H521). The experiment in a line: Antibacterial activity, agar dilution MIC (CLSI). As to conditions: Klebsiella pneumoniae, ESBL KPC. As for the experimental part: as §1
In the next test the test system is K. pneumoniae (S48). The experiment in a line: Antibacterial activity, agar dilution MIC (CLSI). As to conditions: Klebsiella pneumoniae, ESBL NDM, SHV. On the procedure: as §1
In a further test the test system is P. aeruginosa (MBL18). The experiment in a line: Antibacterial activity, agar dilution MIC (CLSI). The conditions noted are these: Pseudomonas aeruginosa, ESBL VIM. On the procedure:
as §1

Test [1] has as its system resistant ESBL strains of K. pneumoniae, E. coli and P. aeruginosa. The experiment in a line: Antibacterial activity profile. As for the experimental part:
as §1

Another test relates to E. coli H483. The experiment in a line: Antibacterial activity in combination with Ceftazidime, agar dilution MIC. As to conditions: Escherichia coli; agent alone; E. coli H483, ESBL CMY-2. On the procedure:
as §1
(§2) The antibacterial activity of the Compound (XI) was also studied in combination with other beta-lactam antibacterial agents. […] The antibacterial activity of the combination of Compound (XI) (4 μg/ml) and Ceftazidime was compared with (i) combination of Cetftazidime and Avibactam (4 μg/ml); and (ii) Imipenem alone.

Test [2] concerns K. pneumoniae ATCC 700603. Described as above. As to conditions: Klebsiella pneumoniae, ATCC700603; agent alone; K. pneumoniae ATCC 700603, ESBL SHV-18. On the procedure: as §1, §2
The test system of another test is K. pneumoniae J101. The description is as above. As to conditions: Klebsiella pneumoniae; agent alone; K. pneumoniae J101, ESBL TEM-1, SHV-12, OMP. On the procedure: as §1, §2
For a further test, the system named is K. pneumoniae J102. The test is described as above. As to conditions: Klebsiella pneumoniae; agent alone; K. pneumoniae J102, ESBL TEM-1, SHV-5, OMP. On the procedure: as §1, §2

Consider `NC[C@@H]1CC[C@@H]2CN1C(=O)N2OS(=O)(=O)O` [Compound (XI), (2S, 5R)-6-sulfooxy-2-(aminomethyl)-7-oxo-1,6-diaza-bicyclo[3.2.1]octane], for which the MIC in the test on E. coli (7MP) came to 4 µg/mL (≈ 15.9 µM); in the test on E. coli (NCTC 13352), 2 µg/mL (≈ 7.96 µM); in the test on E. coli (NCTC 13353) it was 1 µg/mL (≈ 3.98 µM); in the test on K. pneumoniae (H521) it was 1 µg/mL (≈ 3.98 µM); in the test on K. pneumoniae (S48), 1 µg/mL (≈ 3.98 µM); in the test on P. aeruginosa (MBL18) it was 8 µg/mL (≈ 31.8 µM). Also, the “antibacterial activity (in words)” value in test [1] is “good antibacterial activity”.
Consider `CO/N=C(\C(=O)N[C@@H]1C(=O)N2C(C(=O)[O-])=C(C[N+]3(C)CCCC3)CS[C@H]12)c1csc(N)n1` [Cefepime], for which the minimum inhibitory concentration (MIC) was 16 µg/mL (≈ 33.3 µM) in the test on E. coli (7MP); 2 µg/mL (≈ 4.16 µM) in the test on E. coli (NCTC 13352); over 32 µg/mL in the test on E. coli (NCTC 13353); over 32 µg/mL against K. pneumoniae (H521); over 32 µg/mL in the test on K. pneumoniae (S48); over 32 µg/mL against P. aeruginosa (MBL18).
Take `C[C@@H](O)[C@H]1C(=O)N2C(C(=O)O)=C(SCCN=CN)C[C@H]12` [Imipenem]: the MIC in the test on E. coli (7MP) worked out at 1 µg/mL (≈ 3.34 µM); against E. coli (NCTC 13352) it was 0.25 µg/mL (≈ 0.835 µM); in the test with E. coli (NCTC 13353), 0.25 µg/mL (≈ 0.835 µM); in the test on K. pneumoniae (H521) it was 16 µg/mL (≈ 53.4 µM); in the test with K. pneumoniae (S48), 16 µg/mL (≈ 53.4 µM); in the test with P. aeruginosa (MBL18), 16 µg/mL (≈ 53.4 µM). For the same compound, the MIC with E. coli H483 was determined as 0.25 µg/mL; in [2], 0.12 µg/mL; with K. pneumoniae J101, 2 µg/mL; in the test on K. pneumoniae J102, 8 µg/mL.
Consider `CC(C)(O/N=C(\C(=O)N[C@@H]1C(=O)N2C(C(=O)[O-])=C(C[n+]3ccccc3)CS[C@H]12)c1csc(N)n1)C(=O)O` [Ceftazidime], for which the MIC in the test with E. coli (7MP), in the test on E. coli (NCTC 13352), in the test with E. coli (NCTC 13353), with K. pneumoniae (H521), in the test with K. pneumoniae (S48) and against P. aeruginosa (MBL18) was over 32 µg/mL in each case. For the same compound, the MIC in the test with E. coli H483 was over 32 µg/mL; in test [2] it was 16 µg/mL; in the test on K. pneumoniae J101, over 32 µg/mL; in the test with K. pneumoniae J102 it was over 32 µg/mL.
